# Numbered stars: 1 amine (or outer) side, 2 acyl side, 3 side chain; on linkers, the order of the positions; unused ones are H or OH. Side chains are listed from the residue outwards. Peptide text beside a SMILES is read from it. * marks the point of attachment. C18 diacid = O=C(O)CCCCCCCCCCCCCCCCC(=O)*; C16 diacid = O=C(O)CCCCCCCCCCCCCCC(=O)*; γGlu = O=C(O)[C@H](CCC(=O)[*:2])N[*:1]; C14 diacid = O=C(O)CCCCCCCCCCCCC(=O)*; AEEA = NCCOCCOCC(=O)O
# Columns and labels:
# [1] = Assay (XI) Pharmacokinetic study in minipigs; assay type: in vivo, Göttingen minipigs; conditions: both sexes, Göttingen, minipig, plasma, iv, i.v. administration, terminal half-life, read-out: iv PK minipig [T½] (converted)
# Method: Buffer: • 50 mM Dinatriumphosphatdihydrat • 184 mM Propylenglycol • 58 mM Phenol • pH adjusted to 8.15 with H3PO4. In cases where pH was adjusted to 8.15 after re-suspension of analogues, 0.2 M NaOH was used. Assay (XI) Pharmacokinetic Study in Minipigs
# This is done in a pharmacokinetic (PK) study, whereamong other parameters the terminal half-life and the clearance of the derivative in question is determined. Increasing the terminal half-life and decreasing the clearance means that the compound of study is eliminated slower from the body.
# Male or female Göttingen minipigs were obtained from Ellegaard Göttingen Minipigs (Dalmose, Denmark) approximately 7-14 months of age and weighing from approximately 16-35 kg were used in the studies. The minipigs were housed either individually (pigs with permanent catheters) or in a group and fed restrictedly once or twice daily with SDS minipig diet (Special Diets Services, Essex, UK). In some studies two permanent central venous catheters were implanted in vena cava caudalis or cranialis in each animal after at least 2 weeks of acclimatisation. […] On each dosing occasion these pigs were instrumented with a venflon in one ear vein through which the derivatives were dosed. Blood sampling was done by venipuncture in v. jugularis or v. cava cranialis
# The animals were either unfasted or fasted for approximately 18 h before dosing and from 0 to 4 h after dosing, but had ad libitum access to water during the whole period.
# Intravenous injections (the volume corresponding to usually 2-3 nmol/kg, for example 0.1 ml/kg) of the compounds were given through one catheter or through the venflon, and blood was sampled at predefined time points for up till 13 days post dosing (preferably through the other catheter or by venipuncture). Blood samples (for example 0.8 ml) were collected in tubes with EDTA buffer (8 mM) (sometimes aprotinin 500 KIU/ml blood was added) and then centrifuged at 4° C. and 1942 G for 10 minutes. […] Based on these measurements, time-plasma concentration profiles for the compound of study are plotted and a so-called non-compartmental pharmacokinetic analysis of the data is performed in WinNonlin v. 5.0 or Phoenix v. 6.2 (Pharsight Inc., Mountain View, Calif., USA) or other relevant software for PK analysis. For most compounds, the terminal part of the plasma-concentration profiles will be linear when drawn in a semi-logarithmic plot, reflecting that after the initial distribution, drug is removed from the body at a constant fractional rate. The rate (lambda Z or is equal to minus the slope of the terminal part of the plot. From this rate, also the terminal half-life may be calculated, as t½=ln(2)/λz (see, e.g., Johan Gabrielsson and Daniel Weiner: Pharmacokinetics and Pharmacodynamic Data Analysis. Concepts & Applications, 3rd Ed., Swedish Pharmaceutical Press, Stockholm (2000)).
# Clearance is defined as the dose (D) divided by area under the curve (AUC) on the plasmaconcentration versus time profile (Rowland, M and Tozer T N: Clinical Pharmacokinetics: Concepts and Applications, 3rd edition, 1995 Williams Wilkins)
# [2] = biological target: T1, glucagon receptor (Homo sapiens, UniProt P47871); assay: Assay (I) Glucagon activity (cAMP biosensor, FLIPR); assay type: cell-based
# T1 construct: expressed in transfected cells
# [3] = Assay (X) Chemical stability assessment by RP-UPLC; assay type: physicochemical; conditions: pH 8.15, 14 days at 37° C. vs 5° C., 333 μM
# T1 sequence (P47871 26-477): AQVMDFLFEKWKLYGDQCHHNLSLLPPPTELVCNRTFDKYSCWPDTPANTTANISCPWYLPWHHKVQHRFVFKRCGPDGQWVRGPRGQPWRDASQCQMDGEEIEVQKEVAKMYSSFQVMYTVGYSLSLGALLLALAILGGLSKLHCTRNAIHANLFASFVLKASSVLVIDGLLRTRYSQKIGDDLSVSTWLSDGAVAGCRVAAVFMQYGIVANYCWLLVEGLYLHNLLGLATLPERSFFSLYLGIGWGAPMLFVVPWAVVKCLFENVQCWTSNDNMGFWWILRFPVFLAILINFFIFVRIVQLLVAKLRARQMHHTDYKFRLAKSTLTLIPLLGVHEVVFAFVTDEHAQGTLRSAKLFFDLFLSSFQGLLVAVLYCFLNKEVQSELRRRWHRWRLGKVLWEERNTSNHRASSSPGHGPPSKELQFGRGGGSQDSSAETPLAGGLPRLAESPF
SMILES,half-life [1],EC50 [2],Chemical stability [Purity loss/14 days 37 C.] [3]
"CC(C)C[C@H](NC(=O)[C@H](Cc1ccc(O)cc1)NC(=O)[C@H](CCCNC(=N)N)NC(=O)[C@H](CO)NC(=O)[C@H](Cc1ccc(O)cc1)NC(=O)[C@H](CC(=O)O)NC(=O)[C@H](CO)NC(=O)[C@@H](NC(=O)[C@H](Cc1ccccc1)NC(=O)[C@@H](NC(=O)CNC(=O)[C@H](CCC(N)=O)NC(=O)[C@H](CO)NC(=O)[C@@H](N)Cc1c[nH]cn1)[C@@H](C)O)[C@@H](C)O)C(=O)N[C@@H](CC(=O)O)C(=O)N[C@@H](C)C(=O)N[C@@H](CCCNC(=N)N)C(=O)N[C@@H](CCCNC(=N)N)C(=O)N[C@@H](C)C(=O)N[C@@H](CCC(N)=O)C(=O)N[C@@H](CC(=O)O)C(=O)N[C@@H](Cc1ccccc1)C(=O)N[C@H](C(=O)N[C@@H](CCCCNC(=O)CC[C@H](NC(=O)CC[C@H](NC(=O)COCCOCCNC(=O)COCCOCCNC(=O)CC[C@H](NC(=O)CCCCCCCCCCCCCCCCC(=O)O)C(=O)O)C(=O)O)C(=O)O)C(=O)N[C@@H](Cc1c[nH]c2ccccc12)C(=O)N[C@@H](CC(C)C)C(=O)N[C@@H](CC(C)C)C(=O)N[C@@H](CO)C(=O)N[C@H](C(=O)O)[C@@H](C)O)C(C)C [Example 16, N^ε24-[(4S)-4-carboxy-4-[[(4S)-4-carboxy-4-[[2-[2-[2-[[2-[2-[2-[[(4S)-4-carboxy-4-(17-carboxyheptadecanoylamino)butanoyl]amino]ethoxy]ethoxy]acetyl]amino]ethoxy]ethoxy]acetyl]amino]butanoyl]amino]butanoyl]-[Arg^12,Ala^16,Lys^24,Leu^27,Ser^28]-Glucagon] (H-HSQGTFTSDYSRYLDARRAQDFVK([γGlu-γGlu-AEEA-AEEA-γGlu-C18 diacid])WLLST-OH)",86.6 h,0.158 nM,–
"CC(C)C[C@H](NC(=O)[C@H](CC(=O)O)NC(=O)[C@H](CC(C)C)NC(=O)[C@H](Cc1ccc(O)cc1)NC(=O)[C@H](CCCNC(=N)N)NC(=O)[C@H](CO)NC(=O)[C@H](Cc1ccc(O)cc1)NC(=O)[C@H](CC(=O)O)NC(=O)[C@H](CO)NC(=O)[C@@H](NC(=O)[C@H](Cc1ccccc1)NC(=O)[C@@H](NC(=O)CNC(=O)[C@H](CCC(N)=O)NC(=O)[C@H](CO)NC(=O)[C@@H](N)Cc1c[nH]cn1)[C@@H](C)O)[C@@H](C)O)C(=O)N[C@@H](CCCNC(=N)N)C(=O)N[C@@H](CCCNC(=N)N)C(=O)N[C@@H](C)C(=O)N[C@@H](CCC(N)=O)C(=O)N[C@@H](CC(=O)O)C(=O)N[C@@H](Cc1ccccc1)C(=O)N[C@H](C(=O)N[C@@H](CCCCNC(=O)CC[C@H](NC(=O)CC[C@H](NC(=O)COCCOCCNC(=O)COCCOCCNC(=O)CC[C@H](NC(=O)CCCCCCCCCCCCC(=O)O)C(=O)O)C(=O)O)C(=O)O)C(=O)N[C@@H](Cc1c[nH]c2ccccc12)C(=O)N[C@@H](CC(C)C)C(=O)N[C@@H](CC(C)C)C(=O)N[C@@H](CO)C(=O)N[C@H](C(=O)O)[C@@H](C)O)C(C)C [Example 24, N^ε24-[(4S)-4-carboxy-4-[[(4S)-4-carboxy-4-[[2-[2-[2-[[2-[2-[2-[[(4S)-4-carboxy-4-(13-carboxytridecanoylamino)butanoyl]amino]ethoxy]ethoxy]acetyl]amino]ethoxy]ethoxy]acetyl]amino]butanoyl]amino]butanoyl]-[Arg^12,Leu^16,Lys^24,Leu^27,Ser^28]-Glucagon] (H-HSQGTFTSDYSRYLDLRRAQDFVK([γGlu-γGlu-AEEA-AEEA-γGlu-C14 diacid])WLLST-OH)",4.1 h,0.006 nM,–
"CC(C)C[C@H](NC(=O)[C@H](CC(=O)O)NC(=O)[C@H](CC(C)C)NC(=O)[C@H](Cc1ccc(O)cc1)NC(=O)[C@H](CCCNC(=N)N)NC(=O)[C@H](CO)NC(=O)[C@H](Cc1ccc(O)cc1)NC(=O)[C@H](CC(=O)O)NC(=O)[C@H](CO)NC(=O)[C@@H](NC(=O)[C@H](Cc1ccccc1)NC(=O)[C@@H](NC(=O)CNC(=O)[C@H](CCC(N)=O)NC(=O)[C@H](CO)NC(=O)[C@@H](N)Cc1c[nH]cn1)[C@@H](C)O)[C@@H](C)O)C(=O)N[C@@H](CCCNC(=N)N)C(=O)N[C@@H](CCCNC(=N)N)C(=O)N[C@@H](C)C(=O)N[C@@H](CCC(N)=O)C(=O)N[C@@H](CC(=O)O)C(=O)N[C@@H](Cc1ccccc1)C(=O)N[C@H](C(=O)N[C@@H](CCCCNC(=O)CC[C@H](NC(=O)CC[C@H](NC(=O)COCCOCCNC(=O)COCCOCCNC(=O)CC[C@H](NC(=O)CCCCCCCCCCCCCCC(=O)O)C(=O)O)C(=O)O)C(=O)O)C(=O)N[C@@H](Cc1c[nH]c2ccccc12)C(=O)N[C@@H](CC(C)C)C(=O)N[C@@H](CC(C)C)C(=O)N[C@@H](CO)C(=O)N[C@H](C(=O)O)[C@@H](C)O)C(C)C [Example 25, N^ε24-[(4S)-4-carboxy-4-[[(4S)-4-carboxy-4-[[2-[2-[2-[[2-[2-[2-[[(4S)-4-carboxy-4-(15-carboxypentadecanoylamino)butanoyl]amino]ethoxy]ethoxy]acetyl]amino]ethoxy]ethoxy]acetyl]amino]butanoyl]amino]butanoyl]-[Arg^12,Leu^16,Lys^24,Leu^27,Ser^28]-Glucagon] (H-HSQGTFTSDYSRYLDLRRAQDFVK([γGlu-γGlu-AEEA-AEEA-γGlu-C16 diacid])WLLST-OH)",59.6 h,0.067 nM,–
"CC(C)C[C@H](NC(=O)[C@H](Cc1ccc(O)cc1)NC(=O)[C@H](CCCNC(=N)N)NC(=O)[C@H](CO)NC(=O)[C@H](Cc1ccc(O)cc1)NC(=O)[C@H](CC(=O)O)NC(=O)[C@H](CO)NC(=O)[C@@H](NC(=O)[C@H](Cc1ccccc1)NC(=O)[C@@H](NC(=O)CNC(=O)[C@H](CCC(N)=O)NC(=O)[C@H](CO)NC(=O)[C@@H](N)Cc1c[nH]cn1)[C@@H](C)O)[C@@H](C)O)C(=O)N[C@@H](CC(=O)O)C(=O)N[C@@H](C)C(=O)N[C@@H](CCCNC(=N)N)C(=O)N[C@@H](CCCNC(=N)N)C(=O)N[C@@H](C)C(=O)N[C@@H](CCC(N)=O)C(=O)N[C@@H](CC(=O)O)C(=O)N[C@@H](Cc1ccccc1)C(=O)N[C@H](C(=O)N[C@@H](CCCCNC(=O)CC[C@H](NC(=O)CC[C@H](NC(=O)CC[C@H](NC(=O)CC[C@H](NC(=O)CCCCCCCCCCCCCCCCC(=O)O)C(=O)O)C(=O)O)C(=O)O)C(=O)O)C(=O)N[C@@H](Cc1c[nH]c2ccccc12)C(=O)N[C@@H](CC(C)C)C(=O)N[C@@H](CC(C)C)C(=O)N[C@@H](CO)C(=O)N[C@H](C(=O)O)[C@@H](C)O)C(C)C [Example 96, N^ε24-[(4S)-4-carboxy-4-[[(4S)-4-carboxy-4-[[(4S)-4-carboxy-4-[[(4S)-4-carboxy-4-(17-carboxyheptadecanoylamino)butanoyl]amino]butanoyl]amino]butanoyl]amino]butanoyl]-[Arg12,Ala16,Lys24,Leu27,Ser28]-Glucagon] (H-HSQGTFTSDYSRYLDARRAQDFVK([γGlu-γGlu-γGlu-γGlu-C18 diacid])WLLST-OH; N-terminus and C-terminus assumed)",–,0.062 nM,4.5%

# — US9486506B2 (Novo Nordisk A/S, priority 2011, dated 2016)
